According to patent US10919916B2, “Boron-containing small molecules” (Bill & Melinda Gates Foundation, priority 2016, dated 2021):
Values after ≈ are worked out from the molar mass of the structure shown. Read-outs that look alike come from different tables or passages of the source.

Tests used:
[1] = test system: Streptococcus pneumoniae (ATCC 49619); experiment: Antibacterial MIC assay (microbroth dilution, CLSI); format: cell-based
From the text: (§1) All MIC testing of bacteria followed the Clinical and Laboratory Standards Institute (CLSI) guidelines for antimicrobial testing of aerobic bacteria (Methods for Dilution Antimicrobial Susceptibility Tests for Bacteria that Grow Aerobically; Approved Standard—Tenth Edition, M07-A10; Performance Standards for Antimicrobial Susceptibility Testing; Twenty-fifth Informational Supplement, M100-S25).
Briefly, the microbroth dilution MIC method was used to quantitatively measure the in vitro antibacterial activity of a compound against a given bacterial isolate. […] Bacteria were grown in cation-adjusted Mueller-Hinton broth, with additions as required per species growth requirements (e.g. 3% lysed horse blood for fastidious organisms such as S. pneumoniae). A direct colony suspension in saline was prepared from colonies on an overnight agar plate to achieve a turbidity equivalent to 0.5 McFarland standard, which was subsequently diluted into the assay plate to achieve 5×10^5 CFU/mL. Assays plates were prepared by 2-fold dilution of compound across the plate and included a positive growth control.

[2] = test system: Staphylococcus aureus, MRSA (ATCC 33591); experiment: as above; format: cell-based; conditions: read-out: MIC Staphylococcus aureus, MRSA (ATCC 33591)
From the text: as §1
Briefly, the microbroth dilution MIC method was used to quantitatively measure the in vitro antibacterial activity of a compound against a given bacterial isolate. The following bacterial strains were evaluated: Staphylococcus aureus, MRSA (ATCC 33591) and Streptococcus pneumoniae (ATCC 49619). Bacteria were grown in cation-adjusted Mueller-Hinton broth, with additions as required per species growth requirements (e.g. 3% lysed horse blood for fastidious organisms such as S. pneumoniae). A direct colony suspension in saline was prepared from colonies on an overnight agar plate to achieve a turbidity equivalent to 0.5 McFarland standard, which was subsequently diluted into the assay plate to achieve 5×10^5 CFU/mL. Assays plates were prepared by 2-fold dilution of compound across the plate and included a positive growth control.

[3] = ATCC49619, read-out: MIC Streptococcus pneumoniae (ATCC 49619)
[4] = ATCC49619, microbroth dilution, 3% lysed horse blood, 35° C. for 16-20 hours, read-out: MIC Streptococcus pneumoniae (ATCC 49619)
[5] = microbroth dilution, cation-adjusted Mueller-Hinton broth, 35° C. for 16-20 hours

MIC [1, 4] [µg/mL] | MIC [2, 5] [µg/mL] | Structure (SMILES) | MIC [1, 3] [µg/mL] | MIC [2] [µg/mL]
– | – | C=C[C@]1(C)C[C@@H](OC(=O)CNc2ccc3c(c2)B(O)OC3CN)[C@]2(C)[C@H](C)CC[C@]3(CCC(=O)[C@H]32)[C@@H](C)[C@@H]1O (stereo partly drawn) [Compound 52, (3aR,4R,5R,7S,8S,9R,9aS,12R)-8-hydroxy-4,7,9,12-tetramethyl-3-oxo-7-vinyldecahydro-4,9a-propanocyclopenta[8]annulen-5-yl (3-(aminomethyl)-1-hydroxy-1,3-dihydrobenzo[c][1,2]oxaborol-6-yl)glycinate] | 0.5 to 2 (≈ 0.929 to 3.71 µM) | 0.5 to 2 (≈ 0.929 to 3.71 µM)
– | – | C=C[C@]1(C)C[C@@H](OC(=O)CNc2ccc3c(c2F)B(O)OC3)[C@]2(C)[C@H](C)CC[C@]3(CCC(=O)[C@H]32)[C@@H](C)[C@@H]1O [Compound 54, (3aR,4R,5R,7S,8S,9R,9aS,12R)-8-hydroxy-4,7,9,12-tetramethyl-3-oxo-7-vinyldecahydro-4,9a-propanocyclopenta[8]annulen-5-yl (7-fluoro-1-hydroxy-1,3-dihydrobenzo[c][1,2]oxaborol-6-yl)glycinate] | 0.5 to 2 (≈ 0.948 to 3.79 µM) | < 0.25
– | – | C=C[C@]1(C)C[C@@H](OC(=O)COC(=O)Nc2ccc3c(c2F)B(O)OC3)[C@]2(C)[C@H](C)CC[C@]3(CCC(=O)[C@H]32)[C@@H](C)[C@@H]1O [Compound 55, (3aR,4R,5R,7S,8S,9R,9aS,12R)-8-hydroxy-4,7,9,12-tetramethyl-3-oxo-7-vinyldecahydro-4,9a-propanocyclopenta[8]annulen-5-yl 2-(((7-fluoro-1-hydroxy-1,3-dihydrobenzo[c][1,2]oxaborol-6-yl)carbamoyl)oxy)acetate] | 0.5 to 2 (≈ 0.875 to 3.5 µM) | 0.5 to 2 (≈ 0.875 to 3.5 µM)
0.5 to 2 (≈ 0.981 to 3.93 µM) | < 0.25 | C=C[C@]1(C)C[C@@H](OC(=O)NCc2ccc3c(c2)B(O)OC3)[C@]2(C)[C@H](C)CC[C@]3(CCC(=O)[C@H]32)[C@@H](C)[C@@H]1O [Compound 56, (3aR,4R,5R,7S,8S,9R,9aS,12R)-8-hydroxy-4,7,9,12-tetramethyl-3-oxo-7-vinyldecahydro-4,9a-propanocyclopenta[8]annulen-5-yl ((1-hydroxy-1,3-dihydrobenzo[c][1,2]oxaborol-6-yl)methyl) carbamate] | – | –
– | – | C=C[C@]1(C)C[C@@H](OC(=O)NCc2ccc3c(c2F)B(O)OC3)[C@]2(C)[C@H](C)CC[C@]3(CCC(=O)[C@H]32)[C@@H](C)[C@@H]1O [Compound 57, (3aR,4R,5R,7S,8S,9R,9aS,12R)-8-hydroxy-4,7,9,12-tetramethyl-3-oxo-7-vinyldecahydro-4,9a-propanocyclopenta[8]annulen-5-yl ((7-fluoro-1-hydroxy-1,3-dihydrobenzo[c][1,2]oxaborol-6-yl)methyl)carbamate] | 0.5 to 2 (≈ 0.948 to 3.79 µM) | < 0.25
– | – | C=C[C@]1(C)C[C@@H](OC(=O)CNCc2ccc3c(c2)B(O)OC3)[C@]2(C)[C@H](C)CC[C@]3(CCC(=O)[C@H]32)[C@@H](C)[C@@H]1O [Compound 59, (3aR,4R,5R,7S,8S,9R,9aS,12R)-8-hydroxy-4,7,9,12-tetramethyl-3-oxo-7-vinyldecahydro-4,9a-propanocyclopenta[8]annulen-5-yl ((1-hydroxy-1,3-dihydrobenzo[c][1,2]oxaborol-6-yl)methyl)glycinate] | 4 to 32 (≈ 7.64 to 61.1 µM) | 0.5 to 2 (≈ 0.955 to 3.82 µM)
– | – | C=C[C@]1(C)C[C@@H](OC(=O)CNCc2ccc3c(c2)B(O)OC3(C)C)[C@]2(C)[C@H](C)CC[C@]3(CCC(=O)[C@H]32)[C@@H](C)[C@@H]1O [Compound 60, (3aR,4R,5R,7S,8S,9R,9aS,12R)-8-hydroxy-4,7,9,12-tetramethyl-3-oxo-7-vinyldecahydro-4,9a-propanocyclopenta[8]annulen-5-yl ((1-hydroxy-3,3-dimethyl-1,3-dihydrobenzo[c][1,2]oxaborol-6-yl)methyl)glycinate] | 4 to 32 (≈ 7.25 to 58 µM) | 0.5 to 2 (≈ 0.907 to 3.63 µM)
– | – | C=C[C@]1(C)C[C@@H](OC(=O)CSc2ccc3c(c2)B(O)OC3)[C@]2(C)[C@H](C)CC[C@]3(CCC(=O)[C@H]32)[C@@H](C)[C@@H]1O [Compound 61, (3aR,4R,5R,7S,8S,9R,9aS,12R)-8-hydroxy-4,7,9,12-tetramethyl-3-oxo-7-vinyldecahydro-4,9a-propanocyclopenta[8]annulen-5-yl 2-((1-hydroxy-1,3-dihydrobenzo[c][1,2]oxaborol-6-yl)thio)acetate] | < 0.25 | < 0.25
– | – | C=C[C@]1(C)C[C@@H](OC(=O)C[S@@+]([O-])c2ccc3c(c2)B(O)OC3)[C@]2(C)[C@H](C)CC[C@]3(CCC(=O)[C@H]32)[C@@H](C)[C@@H]1O [Compound 62, (3aR,4R,5R,7S,8S,9R,9aS,12R)-8-hydroxy-4,7,9,12-tetramethyl-3-oxo-7-vinyldecahydro-4,9a-propanocyclopenta[8]annulen-5-yl2-((R)-(1-hydroxy-1,3-dihydrobenzo[c][1,2]oxaborol-6-yl)sulfinyl)acetate] | 0.5 to 2 (≈ 0.922 to 3.69 µM) | < 0.25
– | – | C=C[C@]1(C)C[C@@H](OC(=O)C[S@+]([O-])c2ccc3c(c2)B(O)OC3)[C@]2(C)[C@H](C)CC[C@]3(CCC(=O)[C@H]32)[C@@H](C)[C@@H]1O [Compound 63, (3aR,4R,5R,7S,8S,9R,9aS,12R)-8-hydroxy-4,7,9,12-tetramethyl-3-oxo-7-vinyldecahydro-4,9a-propanocyclopenta[8]annulen-5-yl 2-((S)-(1-hydroxy-1,3-dihydrobenzo[c][1,2]oxaborol-6-yl)sulfinyl)acetate] | 4 to 32 (≈ 7.37 to 59 µM) | 0.5 to 2 (≈ 0.922 to 3.69 µM)
– | – | C=C[C@]1(C)C[C@@H](OC(=O)CS(=O)(=O)c2ccc3c(c2)B(O)OC3)[C@]2(C)[C@H](C)CC[C@]3(CCC(=O)[C@H]32)[C@@H](C)[C@@H]1O [Compound 64, (3aR,4R,5R,7S,8S,9R,9aS,12R)-8-hydroxy-4,7,9,12-tetramethyl-3-oxo-7-vinyldecahydro-4,9a-propanocyclopenta[8]annulen-5-yl 2-((1-hydroxy-1,3-dihydrobenzo[c][1,2]oxaborol-6-yl)sulfonyl)acetate] | 0.5 to 2 (≈ 0.895 to 3.58 µM) | < 0.25
– | – | C=C[C@]1(C)C[C@@H](OC(=O)CSc2ccc3c(c2F)B(O)OC3)[C@]2(C)[C@H](C)CC[C@]3(CCC(=O)[C@H]32)[C@@H](C)[C@@H]1O [Compound 65, (3aR,4R,5R,7S,8S,9R,9aS,12R)-8-hydroxy-4,7,9,12-tetramethyl-3-oxo-7-vinyldecahydro-4,9a-propanocyclopenta[8]annulen-5-yl 2-((7-fluoro-1-hydroxy-1,3-dihydrobenzo[c][1,2]oxaborol-6-yl)thio)acetate] | 0.5 to 2 (≈ 0.918 to 3.67 µM) | < 0.25
– | – | C=C[C@]1(C)C[C@@H](OC(=O)C[S@+]([O-])c2ccc3c(c2F)B(O)OC3)[C@]2(C)[C@H](C)CC[C@]3(CCC(=O)[C@H]32)[C@@H](C)[C@@H]1O [Compound 66, (3aR,4R,5R,7S,8S,9R,9aS,12R)-8-hydroxy-4,7,9,12-tetramethyl-3-oxo-7-vinyldecahydro-4,9a-propanocyclopenta[8]annulen-5-yl 2-((S)-(7-fluoro-1-hydroxy-1,3-dihydrobenzo[c][1,2]oxaborol-6-yl)sulfinyl)acetate] | 4 to 32 (≈ 7.14 to 57.1 µM) | 0.5 to 2 (≈ 0.892 to 3.57 µM)
– | – | C=C[C@]1(C)C[C@@H](OC(=O)C[S@@+]([O-])c2ccc3c(c2F)B(O)OC3)[C@]2(C)[C@H](C)CC[C@]3(CCC(=O)[C@H]32)[C@@H](C)[C@@H]1O [Compound 67, (3aR,4R,5R,7S,8S,9R,9aS,12R)-8-hydroxy-4,7,9,12-tetramethyl-3-oxo-7-vinyldecahydro-4,9a-propanocyclopenta[8]annulen-5-yl 2-((R)-(7-fluoro-1-hydroxy-1,3-dihydrobenzo[c][1,2]oxaborol-6-yl)sulfinyl)acetate] | 0.5 to 2 (≈ 0.892 to 3.57 µM) | < 0.25
0.5 to 2 (≈ 0.922 to 3.69 µM) | < 0.25 | C=C[C@]1(C)C[C@@H](OC(=O)COc2ccc3c(c2F)B(O)OCC3)[C@]2(C)[C@H](C)CC[C@]3(CCC(=O)[C@H]32)[C@@H](C)[C@@H]1O [Compound 68, (3aR,4R,5R,7S,8S,9R,9aS,12R)-8-hydroxy-4,7,9,12-tetramethyl-3-oxo-7-vinyldecahydro-4,9a-propanocyclopenta[8]annulen-5-yl 2-((8-fluoro-1-hydroxy-3,4-dihydro-1H-benzo[c][1,2]oxaborinin-7-yl)oxy)acetate] | – | –
< 0.25 | < 0.25 | C=C[C@]1(C)C[C@@H](OC(=O)COc2ccc3c(c2)B(O)OCC3)[C@]2(C)[C@H](C)CC[C@]3(CCC(=O)[C@H]32)[C@@H](C)[C@@H]1O [Compound 69, (3aR,4R,5R,7S,8S,9R,9aS,12R)-8-hydroxy-4,7,9,12-tetramethyl-3-oxo-7-vinyldecahydro-4,9a-propanocyclopenta[8]annulen-5-yl 2-((1-hydroxy-3,4-dihydro-1H-benzo[c][1,2]oxaborinin-7-yl)oxy)acetate] | – | –
